Laboratory results: the supplement of paper PMC10307832

Tests used:
Assay in all cases: relative viability (nuclei count vs DMSO), 5 days (fraction); higher = more cells survive
[1] = compound: COc1cc2c(Oc3ccc4[nH]c(C)cc4c3F)ncnc2cc1OCCCN1CCCC1 [Cediranib] + Cc1nc(NC(=O)N2CCC[C@H]2C(N)=O)sc1-c1ccnc(C(C)(C)C(F)(F)F)c1 [Alpelisib] (partner 2 µM)
Summary of the method: (§1)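 Lung cancer cell lines in 1536-well plates got either a single drug or a fixed anchor-drug dose together with five library-drug doses (not always all listed) in √10 steps, by pin tool, on the day after seeding. Nuclei were counted after 5 days, and relative viability is the treated-to-vehicle ratio of nuclei counts. Values are medians of duplicate plates.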

[2] = compound: COc1cc2c(Oc3ccc4[nH]c(C)cc4c3F)ncnc2cc1OCCCN1CCCC1 [Cediranib] + O=C(c1cc(Cc2n[nH]c(=O)c3ccccc23)ccc1F)N1CCN(C(=O)C2CC2)CC1 [Olaparib] (partner 8 µM)
Summary of the method: as §1

[3] = compound: Nc1ncn([C@H]2C[C@H](O)[C@@H](CO)O2)c(=O)n1 [Decitabine] + CC(C)C[C@H](NC(=O)[C@H](Cc1ccccc1)NC(=O)c1cnccn1)B(O)O [Bortezomib] (partner 0.002 µM)
Summary of the method: as §1

[4] = compound: O=C(C[C@H]1NCCC[C@@H]1O)Cn1cnc2cc(Br)c(Cl)cc2c1=O (racemic) [Halofuginone] + Nc1nc2[nH]cc(CCc3ccc(C(=O)N[C@@H](CCC(=O)O)C(=O)O)cc3)c2c(=O)[nH]1 [Pemetrexed] (partner 0.2 µM)
Summary of the method: as §1

For NCI-H2347, the relative viability ([1]; first compound 0.04 µM) was 1.15, the relative viability ([1]; first compound 0.1265 µM) was 0.997 and the relative viability ([1]; first compound 0.4 µM) was 0.919. For the same cell line, the relative viability ([1]; first compound 1.265 µM) was 0.975, the relative viability ([1]; first compound 4 µM) was 1.12 and the relative viability ([2]; first compound 0.04 µM) was 0.571. It also gave a relative viability ([2]; first compound 0.1265 µM) of 0.675, a relative viability ([2]; first compound 0.4 µM) of 0.59 and a relative viability ([2]; first compound 1.265 µM) of 0.577. The relative viability ([2]; first compound 4 µM) was 0.619, the relative viability ([3]; first compound 0.1265 µM) was 0.768 and the relative viability ([3]; first compound 0.4 µM) was 0.844. It also gave a relative viability ([3]; first compound 1.265 µM) of 0.525, a relative viability ([3]; first compound 4 µM) of 0.572 and a relative viability ([4]; first compound 0.001 µM) of 0.412. It also gave a relative viability ([4]; first compound 0.003162 µM) of 0.445, a relative viability ([4]; first compound 0.01 µM) of 0.432 and a relative viability ([4]; first compound 0.03162 µM) of 0.43. The relative viability ([4]; first compound 0.1 µM) was 0.429.
For NCI-H2405, the relative viability ([1]; first compound 0.04 µM) was 0.815, the relative viability ([1]; first compound 0.1265 µM) was 1.07 and the relative viability ([1]; first compound 0.4 µM) was 0.631. The relative viability ([1]; first compound 1.265 µM) was 0.77, the relative viability ([1]; first compound 4 µM) was 0.758 and the relative viability ([2]; first compound 0.04 µM) was 0.888. The relative viability ([2]; first compound 0.1265 µM) was 0.897, the relative viability ([2]; first compound 0.4 µM) was 0.766 and the relative viability ([2]; first compound 1.265 µM) was 0.888. For the same cell line, the relative viability ([2]; first compound 4 µM) was 0.876, the relative viability ([3]; first compound 0.04 µM) was 0.88 and the relative viability ([3]; first compound 0.1265 µM) was 0.905. The relative viability ([3]; first compound 0.4 µM) was 0.828, the relative viability ([3]; first compound 1.265 µM) was 0.66 and the relative viability ([3]; first compound 4 µM) was 0.538. For the same cell line, the relative viability ([4]; first compound 0.001 µM) was 1.14, the relative viability ([4]; first compound 0.003162 µM) was 1.07 and the relative viability ([4]; first compound 0.01 µM) was 0.978. It also gave a relative viability ([4]; first compound 0.03162 µM) of 0.989 and a relative viability ([4]; first compound 0.1 µM) of 0.638.
In the case of NCI-H3122, the relative viability ([1]; first compound 0.04 µM) is reported as 0.894, the relative viability ([1]; first compound 0.1265 µM) is reported as 1.06 and the relative viability ([1]; first compound 0.4 µM) is reported as 0.731. The relative viability ([1]; first compound 1.265 µM) was 0.852, the relative viability ([1]; first compound 4 µM) was 0.906 and the relative viability ([2]; first compound 0.04 µM) was 0.702. The relative viability ([2]; first compound 0.4 µM) was 0.577, the relative viability ([2]; first compound 1.265 µM) was 0.601 and the relative viability ([2]; first compound 4 µM) was 0.651. For the same cell line, the relative viability ([3]; first compound 0.04 µM) was 0.973, the relative viability ([3]; first compound 0.1265 µM) was 0.987 and the relative viability ([3]; first compound 0.4 µM) was 0.968. It also gave a relative viability ([3]; first compound 1.265 µM) of 0.782, a relative viability ([3]; first compound 4 µM) of 0.725 and a relative viability ([4]; first compound 0.001 µM) of 0.207. For the same cell line, the relative viability ([4]; first compound 0.003162 µM) was 0.191, the relative viability ([4]; first compound 0.01 µM) was 0.205 and the relative viability ([4]; first compound 0.03162 µM) was 0.189. The relative viability ([4]; first compound 0.1 µM) was 0.198.
Cell Line PC-3 [JPC-3] has a relative viability ([1]; first compound 0.04 µM) of 0.953, a relative viability ([1]; first compound 0.1265 µM) of 0.976 and a relative viability ([1]; first compound 0.4 µM) of 0.998. It also gave a relative viability ([1]; first compound 1.265 µM) of 1.02, a relative viability ([1]; first compound 4 µM) of 0.97 and a relative viability ([2]; first compound 0.04 µM) of 1.23. The relative viability ([2]; first compound 0.4 µM) was 1.09, the relative viability ([2]; first compound 1.265 µM) was 1.21 and the relative viability ([2]; first compound 4 µM) was 0.834. It also gave a relative viability ([3]; first compound 0.1265 µM) of 0.6, a relative viability ([3]; first compound 0.4 µM) of 0.458 and a relative viability ([3]; first compound 1.265 µM) of 0.462. For the same cell line, the relative viability ([3]; first compound 4 µM) was 0.389, the relative viability ([4]; first compound 0.001 µM) was 1.1 and the relative viability ([4]; first compound 0.003162 µM) was 1.12. It also gave a relative viability ([4]; first compound 0.01 µM) of 0.983, a relative viability ([4]; first compound 0.03162 µM) of 1.21 and a relative viability ([4]; first compound 0.1 µM) of 0.854.
PC-14 was tested, and the relative viability ([1]; first compound 0.04 µM) was 0.96, the relative viability ([1]; first compound 0.1265 µM) was 1 and the relative viability ([1]; first compound 0.4 µM) was 0.906. For the same cell line, the relative viability ([1]; first compound 1.265 µM) was 0.965, the relative viability ([1]; first compound 4 µM) was 0.986 and the relative viability ([2]; first compound 0.04 µM) was 0.348. For the same cell line, the relative viability ([2]; first compound 0.1265 µM) was 0.23, the relative viability ([2]; first compound 0.4 µM) was 0.261 and the relative viability ([2]; first compound 1.265 µM) was 0.258. It also gave a relative viability ([2]; first compound 4 µM) of 0.377, a relative viability ([3]; first compound 0.04 µM) of 0.35 and a relative viability ([3]; first compound 0.1265 µM) of 0.507. The relative viability ([3]; first compound 0.4 µM) was 0.369, the relative viability ([3]; first compound 1.265 µM) was 0.221 and the relative viability ([3]; first compound 4 µM) was 0.168. The relative viability ([4]; first compound 0.001 µM) was 0.153, the relative viability ([4]; first compound 0.003162 µM) was 0.148 and the relative viability ([4]; first compound 0.01 µM) was 0.143. The relative viability ([4]; first compound 0.03162 µM) was 0.163 and the relative viability ([4]; first compound 0.1 µM) was 0.164.
With RERF-LC-KJ the relative viability ([1]; first compound 0.04 µM) was 0.771, the relative viability ([1]; first compound 0.4 µM) was 0.769 and the relative viability ([1]; first compound 1.265 µM) was 0.761. The relative viability ([1]; first compound 4 µM) was 0.739, the relative viability ([2]; first compound 0.04 µM) was 0.841 and the relative viability ([2]; first compound 0.1265 µM) was 0.866. The relative viability ([2]; first compound 0.4 µM) was 0.915, the relative viability ([2]; first compound 1.265 µM) was 0.998 and the relative viability ([2]; first compound 4 µM) was 0.979. The relative viability ([3]; first compound 0.04 µM) was 1.05, the relative viability ([3]; first compound 0.1265 µM) was 0.931 and the relative viability ([3]; first compound 0.4 µM) was 0.525. For the same cell line, the relative viability ([3]; first compound 1.265 µM) was 0.824, the relative viability ([3]; first compound 4 µM) was 0.779 and the relative viability ([4]; first compound 0.001 µM) was 0.452. It also gave a relative viability ([4]; first compound 0.003162 µM) of 0.45, a relative viability ([4]; first compound 0.01 µM) of 0.434 and a relative viability ([4]; first compound 0.03162 µM) of 0.454. The relative viability ([4]; first compound 0.1 µM) was 0.461.
SK-LU-1 gave a relative viability ([1]; first compound 0.04 µM) of 0.753, a relative viability ([1]; first compound 0.1265 µM) of 1.2 and a relative viability ([1]; first compound 0.4 µM) of 0.958. For the same cell line, the relative viability ([1]; first compound 1.265 µM) was 0.933, the relative viability ([1]; first compound 4 µM) was 1.01 and the relative viability ([2]; first compound 0.04 µM) was 0.617. For the same cell line, the relative viability ([2]; first compound 0.1265 µM) was 0.488, the relative viability ([2]; first compound 0.4 µM) was 0.426 and the relative viability ([2]; first compound 1.265 µM) was 0.462. It also gave a relative viability ([2]; first compound 4 µM) of 0.497, a relative viability ([3]; first compound 0.04 µM) of 0.781 and a relative viability ([3]; first compound 0.1265 µM) of 0.849. For the same cell line, the relative viability ([3]; first compound 0.4 µM) was 0.251, the relative viability ([3]; first compound 1.265 µM) was 0.516 and the relative viability ([3]; first compound 4 µM) was 0.503. For the same cell line, the relative viability ([4]; first compound 0.001 µM) was 1.03, the relative viability ([4]; first compound 0.003162 µM) was 0.981 and the relative viability ([4]; first compound 0.01 µM) was 0.912. For the same cell line, the relative viability ([4]; first compound 0.03162 µM) was 0.921 and the relative viability ([4]; first compound 0.1 µM) was 0.409.
SW 1573 was tested, and the relative viability ([1]; first compound 0.04 µM) was 0.586, the relative viability ([1]; first compound 0.1265 µM) was 0.834 and the relative viability ([1]; first compound 0.4 µM) was 0.655. For the same cell line, the relative viability ([1]; first compound 1.265 µM) was 0.619, the relative viability ([1]; first compound 4 µM) was 0.79 and the relative viability ([2]; first compound 0.04 µM) was 0.522. For the same cell line, the relative viability ([2]; first compound 0.1265 µM) was 0.485, the relative viability ([2]; first compound 0.4 µM) was 0.504 and the relative viability ([2]; first compound 1.265 µM) was 0.42. The relative viability ([2]; first compound 4 µM) was 0.488, the relative viability ([3]; first compound 0.04 µM) was 0.969 and the relative viability ([3]; first compound 0.1265 µM) was 0.895. It also gave a relative viability ([3]; first compound 0.4 µM) of 0.99, a relative viability ([3]; first compound 1.265 µM) of 0.575 and a relative viability ([3]; first compound 4 µM) of 0.382. For the same cell line, the relative viability ([4]; first compound 0.001 µM) was 0.914, the relative viability ([4]; first compound 0.01 µM) was 0.775 and the relative viability ([4]; first compound 0.03162 µM) was 0.574. It also gave a relative viability ([4]; first compound 0.1 µM) of 0.208.
